Usually EC50 stands for the concentration needed to bring the measured effect to its halfway point. The low end stands for higher potency in that assay, the high end for lower potency in that assay.

For data set [1], the target named is T1, AhR (Rattus norvegicus, UniProt P41738).
T1 sequence (P41738 10-853): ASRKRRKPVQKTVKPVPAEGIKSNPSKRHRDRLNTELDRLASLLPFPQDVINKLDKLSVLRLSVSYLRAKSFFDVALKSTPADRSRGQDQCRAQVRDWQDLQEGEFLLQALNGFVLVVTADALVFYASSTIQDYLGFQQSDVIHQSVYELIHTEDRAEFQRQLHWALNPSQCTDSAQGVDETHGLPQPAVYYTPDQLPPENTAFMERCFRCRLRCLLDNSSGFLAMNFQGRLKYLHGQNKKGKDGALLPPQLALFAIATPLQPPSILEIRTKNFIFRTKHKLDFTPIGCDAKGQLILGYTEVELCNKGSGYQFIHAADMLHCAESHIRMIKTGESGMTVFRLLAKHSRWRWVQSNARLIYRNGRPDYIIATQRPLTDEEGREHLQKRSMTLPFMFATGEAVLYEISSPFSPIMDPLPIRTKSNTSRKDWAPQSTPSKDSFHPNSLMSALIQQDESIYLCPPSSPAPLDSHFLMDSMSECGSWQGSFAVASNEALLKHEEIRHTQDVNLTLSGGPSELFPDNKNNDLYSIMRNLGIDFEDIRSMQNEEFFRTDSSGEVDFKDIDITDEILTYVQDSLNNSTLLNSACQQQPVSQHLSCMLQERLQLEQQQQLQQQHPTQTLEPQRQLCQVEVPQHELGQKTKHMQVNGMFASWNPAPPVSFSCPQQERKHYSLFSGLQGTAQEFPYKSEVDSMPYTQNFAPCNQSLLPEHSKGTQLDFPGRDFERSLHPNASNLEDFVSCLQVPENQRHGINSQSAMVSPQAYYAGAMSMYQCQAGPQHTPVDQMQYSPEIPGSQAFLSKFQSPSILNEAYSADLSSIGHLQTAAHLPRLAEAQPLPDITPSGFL
The data set can be described thus: H4IIE-luc transactivation bioassay (AhR-mediated potency). From the text: H4IIE cell line derived from rat hepatoma has been reported to continuously express cytochrome P450 protein/mRNA. For this study, H4IIE cells transfected with the luciferase (Luc) reporter gene plasmid (pGudLuc1.1) were used, originally obtained from Jac Aarts, University of Wageningen, The Netherlands and further developed by John Giesy, University of Saskatchewan[44],[45]. Upon ligand binding, AhR in H4IIE-luc is activated and translocated to the nucleus, where heat shock proteins are dissociated from the complex and they form a dimer with the AhR nuclear translocator (ARNT) protein. This complex binds to specific DNA sequences with high affinity, the dioxin-responsive element (DRE). The binding to the DRE results in DNA bending transcriptional activation of adjacent responsive genes.
Acute toxic potencies of chrysene homologues were determined based on an AhR-mediated activity using H4IIE-luc cells, by the method previously reported. […] After the exposure, the activity results were expressed as relative luminescence units that were quantified using a Victor X3 multi label plate reader (PerkinElmer, Waltham, MA). Benzo[a]pyrene was used as a positive control ligand. We converted responses of the H4IIE-luc bioassay to the percentages of the maximum response (%BaPmax) observed for a 50 nM BaP (= 100%BaPmax). All bioassays were repeated four times in triplicate (Table S4 for detail information of in vitro bioassay conditions). […] Estimations of EC50 values of target compounds from the dose–response relationships were basically assumed equal efficacy and parallelism between target compounds and reference compound (benzo[a]pyrene).
Table S4. In vitro transactivation bioassay conditions for evaluating toxicities of chemical compounds.

The conditions of data set [2]: Table S1, not marked as estimated; cited from earlier work.

For `Oc1cccc2c1ccc1c3ccccc3ccc21` [1-hydroxychrysene], in data set [1], the EC50 stood at 87 µM.

In turn, `Cc1cccc2c1ccc1c3ccccc3ccc21` [1-methylchrysene] returned an EC50 in data set [1] of 1.9 µM. For `Oc1ccc2c(ccc3c4ccccc4ccc23)c1` [2-hydroxychrysene], the EC50 in data set [1] is 59 µM. On the same count and under the same terms, as for `Cc1ccc2c(ccc3c4ccccc4ccc23)c1` [2-methylchrysene], the figure is 0.66 µM. On the same count and under the same terms, as for `Oc1ccc2ccc3c4ccccc4ccc3c2c1` [3-hydroxychrysene], the figure is 140 µM; as for `Cc1ccc2ccc3c4ccccc4ccc3c2c1` [3-methylchrysene], 1.1 µM. Turning to `c1ccc2c(c1)ccc1c2ccc2c3ccccc3ccc21` [Benzo[a]chrysene], a half-maximal effect in data set [1] (EC50) was put at 20 µM. Also, the “Log Kow” value in data set [2] is listed as 7.11.

Regarding `c1ccc2cc3c(ccc4c5ccccc5ccc34)cc2c1` [Benzo[b]chrysene], the EC50 in data set [1] is 2.8 µM. Besides, in data set [2], the “Log Kow” value is 7.11. Compound `c1ccc2c(c1)ccc1c2ccc2ccc3ccccc3c21` [Benzo[c]chrysene] returned an EC50 in data set [1] of 1.3 µM. For the same compound, the “Log Kow” value in data set [2] is 7.11. In turn, `c1ccc2c(c1)ccc1c3ccccc3ccc21` [Chrysene] registered a concentration for a half-maximal effect (EC50) in data set [1] of 7.2 µM. Besides, the “Log Kow” value in data set [2] is 5.81. `c1ccc2c(c1)cc1ccc3c4ccccc4cc4ccc2c1c43` [Dibenzo[b,def]chrysene]: the EC50 in data set [1] came to 14 µM. In addition, the “Log Kow” value in data set [2] is on record as 7.28. Take `c1ccc2c(c1)cc1ccc3cccc4c5ccccc5c2c1c34` [Dibenzo[def,p]chrysene]: in data set [1], the response was half-maximal at 76 µM (EC50). Moreover, the “Log Kow” value in data set [2] was 7.71.

(Values after article PMC7428016, “Influence of ligand’s directional configuration, chrysenes as model compounds, on the binding activity with aryl hydrocarbon receptor” (Scientific Reports, 2020).)
